From patent US10315990B2, “Isothiocyanate compounds and isothiocyanate XPO1 protein inhibitor drugs thereof” (DRIVINGFORCE THERAPEUTICS Co., Ltd., priority 2015, dated 2019)
Where two headings read alike, the source gives them in different places.

Assays:
XPO1 protein = molecular target: T1, XPO1 protein (Homo sapiens, UniProt O14980); test: Inhibitory activity for XPO1 protein (NES-GFP nuclear export, laser confocal microscope); assay type: cell-based; conditions: for Activity (μM): inhibitory activity for XPO1 protein (full inhibitory concentration): NES-GFP nuclear export, cells treated for 2 hours
T1 construct: Sixteen hours later, NES-GFP plasmid was transfected with liposome; endogenous in cells
From the text: NES (nuclear export signal) is a nuclear export signal peptide recognized by XPO1 protein. XPO1 recognizes NES sequence peptide segment of biomacromolecule and exports the biomacromolecule out of nucleus. NES-GFP protein is obtained by co-expressing green fluorescence protein GFP and NES sequence peptide segment by using a eukaryotic expression plasmid. Inhibitory activity of the representative compound for XPO1 protein can be assessed by detecting influence of the compound on NES-GFP cell localization.
The cells were digested with trypsin, counted, and inoculated on 96-well plate in an amount of 1.5×10^4 cells per well. Sixteen hours later, NES-GFP plasmid was transfected with liposome.

IBD animal model = test: Macroscopic pathological changes of IBD animal model (enteroclysis with TNBS); assay type: in vivo, SD rats; conditions: TNBS rats; for Macroscopic pathological score: 80 mg/kg intragastrically daily, score 0-5, 10 animals
Description: Eight-week-old male SD rats (10 rats per group) were fasted for 24 hours and anaesthetized with diethyl ether. 50% ethanol and TNBS (2,4,6-trinitrobenzenesulfonic acid) were mixed to prepare a solution. In the IBD model group, a tube made of vinyl resin was inserted 5 cm from anus, and enteroclysis was performed with the TNBS solution in a dose of 100 mg/kg. The rats were hung upside down 30 seconds later after the enteroclysis to ensure no leakage of the TNBS solution. In the control group, the TNBS solution was replaced with normal saline with which enteroclysis was performed. Seven days later after the enteroclysis with the TNBS solution or normal saline, animals were sacrificed and dissected. […] Two weeks later after treated with the drugs, the animals were sacrificed and dissected, and large intestine thereof was taken out and fixed in 4% formalin solution for 30 minutes. The large intestine of the animals was cut lengthwise from the mesentery side to take photos for rectum portion and measure the weight of rectum. Based on the macroscopic observation and judgment score (Table 2-1), ulceration and bleeding states of rectum portion were scored according to the macroscopic observation scoring standard.

TNF-α = test: Serum TNF-α level of IBD animal model (ELISA); assay type: in vivo, SD rats; conditions: 80 mg/kg, three days after making the TNBS model
From the text: (§1) Inflammatory bowel disease is an autoimmune disease. […] The therapeutic effect of the representative compound for the immune system disease or inflammation can be assessed by detecting change in levels of some important cytokines such as TNF-α and IL-6 at downstream of the signal path.

IL-6 = test: Serum IL-6 level of IBD animal model (ELISA); assay type: in vivo, SD rats; conditions: 80 mg/kg, three days after making the TNBS model
From the text: as §1

HMLE-Snail cell line = test: Formation of HMLE-Snail cell line spheroids; assay type: cell-based; conditions: read-out: Colony (%): cell colony number of drug-treated group/cell colony number of control group × 100%
Description: HMLE-Snail cell line is one of most classic cell models for studying tumor cell metastasis and EMT path. HMLE-Snail cell line highly expresses Snail protein, and thus one of most remarkable features thereof is that it has spherical cellular morphology (spheroid). […] The HMLE-Snail cell line used in the present invention was donated by Dr. Robert Weinberg from America Massachusetts Whitehead Institute. HMLE-Snail cells were suspended in a liquid culture medium (in which B-27 and N-2 were added, purchased from America Invitrogen Corporation) containing DMEM/F12 in a ratio of 1:1, in an amount of 1.0×10^3 cells/ml, and cultured in an ultra low attachment culture plate so as to allow spheroids to be formed. Seven days later, spheroids were collected by centrifugation, and counted. […] Docetaxel is a common clinical chemotherapy drug.

NCI-H1650 = test: cells; assay type: cell-based; conditions: Homo sapiens, NCI-H1650, 72 h
Description: (§2) NCI-H1975 and NCI-H1650 are two typical high metastasis type lung cancer cell lines. The therapeutic effect of the representative compound for the metastasis type lung cancers can be preliminarily assessed by detecting the inhibitory activity of the representative compound for the two cell lines. The lung cancer cell line was inoculated on 96-well cell culture plate in an amount of 6000 cells per well and cultured at 37° C. for 24 hours, and then treated solely with the compound added therein and cultured. Seventy-two hours later, MTT or CCK-8 method was used to detect the inhibitory activity of the compound for the two lung cancer cell lines.

NCI-H1975 = test: cells; assay type: cell-based; conditions: Homo sapiens, NCI-H1975, 72 h
Description: as §2

A2780 = test: Inhibitory activity for high metastasis type ovarian cancer cell line (MTT or CCK-8); assay type: cell-based; conditions: Homo sapiens
Description: (§3) The two cell lines were inoculated on 96-well cell culture plate in an amount of 6000 cells per well and cultured at 37° C. for 24 hours, and then treated solely with the representative compound added therein and cultured. Seventy-two hours later, MTT or CCK-8 method was used to detect the inhibitory activity of the representative compound for the high metastasis type ovarian cancer cell lines.

HO-8910 = test: as above; assay type: cell-based
Description: as §3

Panc-1 = test: Inhibitory activity for other high metastasis type cancer cell line (MTT or CCK-8); assay type: cell-based; conditions: Homo sapiens
KYSE-70 = test: as above; assay type: cell-based; conditions: Homo sapiens
Saos-2 = test: as above; assay type: cell-based; conditions: Homo sapiens
786-O = test: as above; assay type: cell-based; conditions: Homo sapiens
CaSki = test: as above; assay type: cell-based; conditions: Homo sapiens, Ca-Ski
[1] = Safety testing via oral administration, 6 weeks; assay type: in vivo; conditions: intragastric, 6 weeks continuously, male and female SD rats
Description: The compound solution was intragastrically administrated to 6-week-old male and female SD rats (I-01: 500 mg/kg/day; I-03: 500 mg/kg/day; I-04: 500 mg/kg/day, I-06: 500 mg/kg/day, I-11: 300 mg/kg/day) for 6 weeks continuously (n=10 per group).

HCT116 = test: Inhibitory activity for high metastasis type colon cancer cell line (MTT or CCK-8); assay type: cell-based; conditions: Homo sapiens, HCT-116; HCT116, 72 hours; read-out: IC50
Description: (§4) SW620 and HCT116 are two typical high metastasis type colon cancer cell lines. The colon cancer cell line was inoculated on 96-well cell culture plate in an amount of 6000 cells per well and cultured at 37° C. for 24 hours, and then treated solely with the compound added therein and cultured. Seventy-two hours later, MTT or CCK-8 method was used to detect the inhibitory activity of the compound for the two high metastasis type colon cancer cell lines.

SW620 = test: as above; assay type: cell-based; conditions: Homo sapiens, SW-620; SW620, 72 hours; read-out: IC50
Description: as §4

Jeko-1 = test: Inhibitory activity for high metastasis type lymphoma cell line (MTT or CCK-8); assay type: cell-based; conditions: Homo sapiens; Jeko-1, 72 hours; read-out: IC50
Description: (§5) Jeko-1, Raji and U2932 are three typical high metastasis type lymphoma cell lines. The lymphoma cell line was inoculated on 96-well cell culture plate in an amount of 6000 cells per well and cultured at 37° C. for 24 hours, and then treated solely with the compound added therein and cultured. Seventy-two hours later, MTT or CCK-8 method was used to detect the inhibitory activity of the compound for the two high metastasis type lymphoma cell lines.

Raji = test: as above; assay type: cell-based; conditions: Homo sapiens, 72 hours, read-out: IC50
Description: as §5

U2932 = test: as above; assay type: cell-based; conditions: Homo sapiens; U2932, 72 hours; read-out: IC50
Description: as §5

[2] = tested on: SK-OV3 (high metastasis type ovarian cancer cell line); test: Ovarian cancer intraperitoneal metastasis animal model; assay type: in vivo, nudemice (BALB/c-nu/nu); conditions: Mus musculus, SK-OV-3, ip
Description: The ovarian cancer intraperitoneal metastasis animal model is one of most classic animal models for studying anti-ovarian cancer metastasis drug. Sixty 5 to 6-week-old female nudemice with similar weight (BALB/c-nu/nu) were chosen. SK-OV3 (high metastasis type ovarian cancer cell line) stably expressing green fluorescence protein was screened, and prepared into a cell suspension of 2×10^6 cells/100 μl with serum-free PRMI1640 medium. […] Three weeks later, the cancer was detected with a small animal in vivo imaging apparatus (Xenogen, School of Medicine, Shanghai Jiaotong University) and photos thereof were taken. […] In the table, T represents the drug-treated group, and C represents the blank control group. T/C is (V/V0 of compound-treated group)/(V/V0 of blank control group) in which V represents the cancer volume of mouse on the day the detection was performed, and V0 represents the cancer volume of mouse on the day the administration begun.

[3] = 10 μg/ml, treated for 24 hours, control = 100

T1 sequence (O14980 whole entry, species assumed): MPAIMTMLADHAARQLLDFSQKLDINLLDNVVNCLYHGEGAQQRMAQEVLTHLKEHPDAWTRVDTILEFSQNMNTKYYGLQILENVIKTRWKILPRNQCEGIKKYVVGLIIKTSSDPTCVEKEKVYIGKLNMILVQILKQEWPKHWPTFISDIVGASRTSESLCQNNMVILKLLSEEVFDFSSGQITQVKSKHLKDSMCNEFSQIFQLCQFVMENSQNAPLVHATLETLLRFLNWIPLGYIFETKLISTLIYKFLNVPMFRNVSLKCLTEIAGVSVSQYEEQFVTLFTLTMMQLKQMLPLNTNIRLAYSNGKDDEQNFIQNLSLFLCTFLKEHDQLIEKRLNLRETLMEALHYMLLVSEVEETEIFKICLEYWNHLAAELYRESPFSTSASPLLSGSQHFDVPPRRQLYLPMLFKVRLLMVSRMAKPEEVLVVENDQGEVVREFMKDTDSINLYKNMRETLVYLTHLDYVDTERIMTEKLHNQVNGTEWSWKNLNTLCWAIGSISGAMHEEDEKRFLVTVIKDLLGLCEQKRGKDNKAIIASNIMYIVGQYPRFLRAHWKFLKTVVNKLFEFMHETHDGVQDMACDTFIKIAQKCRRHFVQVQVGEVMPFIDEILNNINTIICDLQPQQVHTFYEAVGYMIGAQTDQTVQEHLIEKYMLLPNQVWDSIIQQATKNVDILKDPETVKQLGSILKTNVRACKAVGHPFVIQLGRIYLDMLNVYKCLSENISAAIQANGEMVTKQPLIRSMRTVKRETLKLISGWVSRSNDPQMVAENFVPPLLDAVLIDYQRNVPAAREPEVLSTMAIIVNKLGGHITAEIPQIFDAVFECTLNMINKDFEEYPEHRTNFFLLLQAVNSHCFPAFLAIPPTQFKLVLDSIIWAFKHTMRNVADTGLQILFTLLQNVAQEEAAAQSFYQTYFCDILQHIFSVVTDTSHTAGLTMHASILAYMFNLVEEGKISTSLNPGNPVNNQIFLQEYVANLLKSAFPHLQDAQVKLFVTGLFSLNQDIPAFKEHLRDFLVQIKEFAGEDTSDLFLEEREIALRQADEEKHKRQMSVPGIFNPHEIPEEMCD

| SMILES | Activity (μM): inhibitory activity for XPO1 protein (full inhibitory concentration) (XPO1 protein) [µM] | Macroscopic pathological score (IBD animal model) | Serum TNF-α level, Animal-1 (TNF-α) [ng/mL] | Serum TNF-α level, Animal-2 (TNF-α) [ng/mL] | Serum TNF-α level, Animal-3 (TNF-α) [ng/mL] | Serum IL-6 level, Animal-1 (IL-6) [ng/mL] | Serum IL-6 level, Animal-2 (IL-6) [ng/mL] | Serum IL-6 level, Animal-3 (IL-6) [ng/mL] | activity at 10 µg/mL (HMLE-Snail cell line; [3]) [%] | also measured |
| --- | --- | --- | --- | --- | --- | --- | --- | --- | --- | --- |
| [O-][S+](/C=C/CCN=C=S)c1ccccc1 (stereo not drawn) [Compound I-01] | 1 to 5 | 2.5 ± 0.1 | 1.5 | 1.2 | 1.2 | 1.5 | 1.3 | 1.2 | – | NES-GFP cell localization (FIG. 1) (XPO1 protein; laser confocal micrograph): most of NES-GFP protein emitting green fluorescence is congregated in nucleus; activity at 10 µg/mL (HMLE-Snail cell line; 24 h): 35 to 40%; IC50 (NCI-H1650): 2700 nM; IC50 (NCI-H1975): 3100 nM; IC50 (A2780; A2780, 72 h): 2500 nM; IC50 (HO-8910; HO-8910, 72 h): 1900 nM; IC50 (Panc-1; PANC-1, 72 h): 3300 nM; IC50 (KYSE-70; KYSE-70, 72 h): 2700 nM; IC50 (Saos-2; SAOS-2, 72 h): 3200 nM; IC50 (786-O; 786-0, 72 h): 1000 nM; IC50 (CaSki; 72 h): 2100 nM |
| [O-][S+](/C=C/CCN=C=S)c1ccc2ccccc2c1 (stereo not drawn) [Compound I-11] | 1 to 5 | – | – | – | – | – | – | – | 30 to 35 | nontoxic dose [1]: at least 300 mg/kg/day |
| S=C=NCCc1ccccc1 [PEITC, phenylethylisothiocyanate, reference compound] | 30 | 3.5 ± 0.3 | 2.0 | 1.9 | 2.0 | 2.2 | 2.1 | 2.1 | 85 | colon tissue bleeding and ulceration phenomena (in words) (IBD animal model; 80 mg/kg): small relief extent; IC50 (HCT116): 8400 nM; IC50 (SW620): 10200 nM; IC50 (Jeko-1): 8700 nM; IC50 (Raji): 9300 nM; IC50 (U2932): 11700 nM; IC50 (A2780; A2780, 72 hours, read-out: IC50): 17600 nM; IC50 (HO-8910; HO-8910, 72 hours, read-out: IC50): 15500 nM; response vs control in vivo at 80 mg/kg ([2]; 504 h, 80 mg/kg intraperitoneal injection once a day for 3 weeks, read-out: T/C (%)): 71%; mortality at 80 mg/kg ([2]; 720 h, 80 mg/kg, six mice per group, read-out: Mortality (within 30 days) (converted)): 0% |
| [O-][S+](/C=C/CCN=C=S)c1ccc(Cl)c(C(F)(F)F)c1 (stereo not drawn) [Compound I-03] | 0.5 to 1 | – | 1.3 | 1.1 | 0.7 | 0.9 | 0.8 | 0.7 | 25 to 30 | IC50 (Panc-1; Panc-1, 72 hours, read-out: IC50): 1600 nM; IC50 (KYSE-70; KYSE-70, 72 hours, read-out: IC50): 1800 nM; IC50 (Saos-2; Saos-2, 72 hours, read-out: IC50): 2600 nM; IC50 (786-O; 786-0, 786-O, 72 hours, read-out: IC50): 1300 nM; IC50 (CaSki; CaSki, 72 hours, read-out: IC50): 1500 nM |
